Laboratory results reported in patent US8933230B2, “Phosphorus-containing group-substituted quinoline, its preparation process, medical composition containing the compounds and application” (priority 2011, dated 2015).

Tests used:
Experiment in all cases: KinomeScan kinase panel
Type in all cases: binding
[1] = target: T1, ABL1(F317L)-phosphorylated (Homo sapiens, UniProt P00519, F317L)
T1 construct: purchased DiscoveRx Corporation (KinomeScan)
Outline: (§1)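 Compound is added at 1000 nM to each assay of the KinomeScan 442-kinase panel. Inhibitory effect is then recorded per kinase.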

[2] = target: T2, ANKK1 (Homo sapiens, UniProt Q8NFD2)
T2 construct: purchased DiscoveRx Corporation (KinomeScan)
Outline: as §1

[3] = target: T3, AURKA (Homo sapiens, UniProt O14965)
T3 construct: purchased DiscoveRx Corporation (KinomeScan)
Outline: as §1

[4] = target: T4, AURKB (Homo sapiens, UniProt Q96GD4)
T4 construct: purchased DiscoveRx Corporation (KinomeScan)
Outline: as §1

[5] = target: T5, AURKC (Homo sapiens, UniProt Q9UQB9)
T5 construct: purchased DiscoveRx Corporation (KinomeScan)
Outline: as §1

[6] = target: T6, CAMK2G (Homo sapiens, UniProt Q13555)
T6 construct: purchased DiscoveRx Corporation (KinomeScan)
Outline: as §1

[7] = target: T7, CAMK4 (Homo sapiens, UniProt Q16566)
T7 construct: purchased DiscoveRx Corporation (KinomeScan)
Outline: as §1

[8] = target: T8, CDK4-cyclinD1 (Homo sapiens, UniProt P11802)
T8 construct: purchased DiscoveRx Corporation (KinomeScan)
Outline: as §1

[9] = target: T9, CDKL3 (Homo sapiens, UniProt Q8IVW4)
T9 construct: purchased DiscoveRx Corporation (KinomeScan)
T9 sequence (Q8IVW4 whole entry): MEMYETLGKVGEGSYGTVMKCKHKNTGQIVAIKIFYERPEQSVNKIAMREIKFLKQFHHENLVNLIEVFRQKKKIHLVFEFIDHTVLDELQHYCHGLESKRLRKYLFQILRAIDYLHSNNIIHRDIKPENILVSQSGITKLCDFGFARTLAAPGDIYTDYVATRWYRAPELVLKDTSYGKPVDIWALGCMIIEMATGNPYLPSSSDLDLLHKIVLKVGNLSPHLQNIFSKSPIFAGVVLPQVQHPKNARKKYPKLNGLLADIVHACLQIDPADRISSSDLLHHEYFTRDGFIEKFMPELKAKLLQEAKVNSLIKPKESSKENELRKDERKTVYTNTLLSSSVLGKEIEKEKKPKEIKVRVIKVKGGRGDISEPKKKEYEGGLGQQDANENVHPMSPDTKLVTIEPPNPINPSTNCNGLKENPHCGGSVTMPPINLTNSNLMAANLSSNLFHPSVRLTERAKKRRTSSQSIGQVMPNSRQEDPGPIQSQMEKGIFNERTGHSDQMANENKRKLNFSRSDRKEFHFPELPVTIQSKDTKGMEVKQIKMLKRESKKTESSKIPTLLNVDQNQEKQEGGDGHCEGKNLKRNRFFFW
Outline: as §1

[10] = target: T10, CSNK1D (Homo sapiens, UniProt P48730)
T10 construct: purchased DiscoveRx Corporation (KinomeScan)
Outline: as §1

[11] = target: T11, CSNK2A2 (Homo sapiens, UniProt P19784)
T11 construct: purchased DiscoveRx Corporation (KinomeScan)
Outline: as §1

[12] = target: T12, DYRK1A (Homo sapiens, UniProt Q13627)
T12 construct: purchased DiscoveRx Corporation (KinomeScan)
Outline: as §1

[13] = target: T13, DYRK2 (Homo sapiens, UniProt Q92630)
T13 construct: purchased DiscoveRx Corporation (KinomeScan)
Outline: as §1

[14] = target: T14, EPHB2 (Homo sapiens, UniProt P29323)
T14 construct: purchased DiscoveRx Corporation (KinomeScan)
Outline: as §1

[15] = target: T15, FGFR3(G697C) (Homo sapiens, UniProt P22607, G697C)
T15 construct: purchased DiscoveRx Corporation (KinomeScan)
T15 sequence (P22607 23-806 G697C): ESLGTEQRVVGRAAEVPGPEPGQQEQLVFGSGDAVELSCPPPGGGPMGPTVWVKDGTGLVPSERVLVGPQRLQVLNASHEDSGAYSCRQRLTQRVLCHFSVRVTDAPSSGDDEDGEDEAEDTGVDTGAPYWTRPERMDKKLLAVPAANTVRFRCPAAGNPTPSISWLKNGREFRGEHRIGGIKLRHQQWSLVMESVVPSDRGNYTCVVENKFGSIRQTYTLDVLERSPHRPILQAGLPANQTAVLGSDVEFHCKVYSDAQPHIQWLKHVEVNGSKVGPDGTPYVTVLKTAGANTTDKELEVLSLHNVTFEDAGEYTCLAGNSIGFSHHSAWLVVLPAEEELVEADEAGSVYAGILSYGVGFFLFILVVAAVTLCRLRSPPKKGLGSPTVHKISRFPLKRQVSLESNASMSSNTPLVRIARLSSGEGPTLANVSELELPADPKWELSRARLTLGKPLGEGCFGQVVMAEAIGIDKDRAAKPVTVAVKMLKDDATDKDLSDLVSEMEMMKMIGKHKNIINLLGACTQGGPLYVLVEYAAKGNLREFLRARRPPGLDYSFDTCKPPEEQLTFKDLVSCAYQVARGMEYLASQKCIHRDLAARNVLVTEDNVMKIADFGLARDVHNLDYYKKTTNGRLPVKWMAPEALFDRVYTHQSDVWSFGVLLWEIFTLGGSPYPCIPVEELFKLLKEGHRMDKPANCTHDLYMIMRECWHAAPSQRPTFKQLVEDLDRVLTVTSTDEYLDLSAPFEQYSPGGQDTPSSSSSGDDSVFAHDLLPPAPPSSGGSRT
Outline: as §1

[16] = target: T16, FRK (Homo sapiens, UniProt P42685)
T16 construct: purchased DiscoveRx Corporation (KinomeScan)
Outline: as §1

[17] = target: T17, HIPK3 (Homo sapiens, UniProt Q9H422)
T17 construct: purchased DiscoveRx Corporation (KinomeScan)
T17 sequence (Q9H422 whole entry): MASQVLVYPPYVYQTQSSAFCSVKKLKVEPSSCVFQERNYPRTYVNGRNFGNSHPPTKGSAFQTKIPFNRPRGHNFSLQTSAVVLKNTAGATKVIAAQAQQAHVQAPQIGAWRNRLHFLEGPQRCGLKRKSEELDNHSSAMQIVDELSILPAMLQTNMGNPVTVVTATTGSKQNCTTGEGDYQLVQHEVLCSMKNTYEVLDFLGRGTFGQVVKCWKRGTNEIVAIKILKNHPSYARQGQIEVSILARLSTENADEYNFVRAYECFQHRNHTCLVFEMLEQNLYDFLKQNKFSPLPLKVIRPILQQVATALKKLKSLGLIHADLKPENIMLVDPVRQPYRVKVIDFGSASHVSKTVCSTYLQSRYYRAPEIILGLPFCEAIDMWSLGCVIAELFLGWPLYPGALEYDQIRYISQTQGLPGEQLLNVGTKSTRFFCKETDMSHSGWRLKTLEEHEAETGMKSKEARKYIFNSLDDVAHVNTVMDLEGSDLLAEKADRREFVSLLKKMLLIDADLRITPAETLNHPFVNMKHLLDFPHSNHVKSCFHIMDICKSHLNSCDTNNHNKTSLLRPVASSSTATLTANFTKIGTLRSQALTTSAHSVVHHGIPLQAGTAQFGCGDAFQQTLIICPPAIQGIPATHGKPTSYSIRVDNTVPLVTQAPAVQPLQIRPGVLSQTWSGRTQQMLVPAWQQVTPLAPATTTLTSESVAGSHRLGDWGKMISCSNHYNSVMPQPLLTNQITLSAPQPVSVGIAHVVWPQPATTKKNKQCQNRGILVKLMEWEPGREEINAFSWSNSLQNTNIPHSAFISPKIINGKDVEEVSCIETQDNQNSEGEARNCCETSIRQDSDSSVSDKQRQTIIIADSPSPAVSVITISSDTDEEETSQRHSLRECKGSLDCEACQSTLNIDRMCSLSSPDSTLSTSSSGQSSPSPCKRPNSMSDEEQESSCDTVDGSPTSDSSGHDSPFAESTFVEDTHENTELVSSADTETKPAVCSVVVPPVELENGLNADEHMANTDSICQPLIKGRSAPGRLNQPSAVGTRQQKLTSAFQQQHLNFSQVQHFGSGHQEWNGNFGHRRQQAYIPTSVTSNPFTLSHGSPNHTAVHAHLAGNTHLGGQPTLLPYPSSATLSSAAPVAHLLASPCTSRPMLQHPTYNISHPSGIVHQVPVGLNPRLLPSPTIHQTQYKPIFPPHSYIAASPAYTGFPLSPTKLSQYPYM
Outline: as §1

[18] = target: T18, IGF1R (Homo sapiens, UniProt P08069)
T18 construct: purchased DiscoveRx Corporation (KinomeScan)
Outline: as §1

[19] = target: T19, KIT(D816V) (Homo sapiens, UniProt P10721, D816V)
T19 construct: purchased DiscoveRx Corporation (KinomeScan)
T19 sequence (P10721 26-976 D816V): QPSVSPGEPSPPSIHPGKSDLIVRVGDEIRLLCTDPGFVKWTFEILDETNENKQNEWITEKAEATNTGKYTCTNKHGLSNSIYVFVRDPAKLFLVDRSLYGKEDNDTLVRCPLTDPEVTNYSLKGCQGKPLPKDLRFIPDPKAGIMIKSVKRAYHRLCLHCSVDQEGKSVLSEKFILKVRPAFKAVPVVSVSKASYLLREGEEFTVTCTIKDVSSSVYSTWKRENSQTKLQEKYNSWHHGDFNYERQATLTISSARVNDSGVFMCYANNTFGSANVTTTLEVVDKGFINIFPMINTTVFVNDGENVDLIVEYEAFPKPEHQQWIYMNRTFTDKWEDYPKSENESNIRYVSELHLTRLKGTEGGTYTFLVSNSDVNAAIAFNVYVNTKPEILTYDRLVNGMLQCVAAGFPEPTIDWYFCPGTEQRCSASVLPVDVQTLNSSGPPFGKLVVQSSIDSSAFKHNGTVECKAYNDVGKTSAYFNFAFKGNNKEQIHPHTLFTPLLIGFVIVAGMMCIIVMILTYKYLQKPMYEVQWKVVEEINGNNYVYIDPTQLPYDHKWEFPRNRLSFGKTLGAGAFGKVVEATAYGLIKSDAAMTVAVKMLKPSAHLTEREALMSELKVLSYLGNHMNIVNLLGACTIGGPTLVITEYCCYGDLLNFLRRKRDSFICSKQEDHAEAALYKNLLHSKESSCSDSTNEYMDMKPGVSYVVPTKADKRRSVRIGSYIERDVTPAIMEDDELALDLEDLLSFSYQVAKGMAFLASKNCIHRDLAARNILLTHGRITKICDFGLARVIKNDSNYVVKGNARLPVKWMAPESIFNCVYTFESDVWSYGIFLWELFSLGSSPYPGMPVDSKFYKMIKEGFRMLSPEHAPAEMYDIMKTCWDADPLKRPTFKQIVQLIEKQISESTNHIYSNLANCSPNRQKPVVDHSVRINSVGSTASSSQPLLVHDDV
Outline: as §1

[20] = target: T20, KIT(L576P) (Homo sapiens, UniProt P10721, L576P)
T20 construct: purchased DiscoveRx Corporation (KinomeScan)
T20 sequence (P10721 26-976 L576P): as the sequence (P10721 26-976 D816V) above, with L551P, V791D counted along it
Outline: as §1

[21] = target: T21, KIT(V559D) (Homo sapiens, UniProt P10721, V559D)
T21 construct: purchased DiscoveRx Corporation (KinomeScan)
T21 sequence (P10721 26-976 V559D): as the sequence (P10721 26-976 D816V) above, with V534D, V791D counted along it
Outline: as §1

[22] = target: T22, MAP3K2 (Homo sapiens, UniProt Q9Y2U5)
T22 construct: purchased DiscoveRx Corporation (KinomeScan)
Outline: as §1

[23] = target: T23, MAPKAPK2 (Homo sapiens, UniProt P49137)
T23 construct: purchased DiscoveRx Corporation (KinomeScan)
Outline: as §1

[24] = target: T24, MEK3 (Homo sapiens, UniProt P46734)
T24 construct: purchased DiscoveRx Corporation (KinomeScan)
Outline: as §1

[25] = target: T25, MET (Homo sapiens, UniProt P08581)
T25 construct: purchased DiscoveRx Corporation (KinomeScan)
Outline: as §1

[26] = target: T26, P38-beta (Homo sapiens, UniProt Q15759)
T26 construct: purchased DiscoveRx Corporation (KinomeScan panel)
T26 sequence (Q15759 whole entry): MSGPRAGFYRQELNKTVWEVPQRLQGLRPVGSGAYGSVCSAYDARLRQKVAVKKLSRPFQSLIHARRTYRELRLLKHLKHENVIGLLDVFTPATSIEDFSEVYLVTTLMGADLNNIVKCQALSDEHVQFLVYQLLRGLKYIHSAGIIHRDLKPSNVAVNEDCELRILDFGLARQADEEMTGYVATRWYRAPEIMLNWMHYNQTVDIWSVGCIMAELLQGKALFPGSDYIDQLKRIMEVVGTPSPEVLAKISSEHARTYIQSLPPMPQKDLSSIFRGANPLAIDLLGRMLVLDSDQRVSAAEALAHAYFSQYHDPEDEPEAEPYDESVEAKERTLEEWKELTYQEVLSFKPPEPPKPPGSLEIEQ
Outline: as §1

[27] = target: T27, PAK3 (Homo sapiens, UniProt O75914)
T27 construct: purchased DiscoveRx Corporation (KinomeScan panel)
Outline: as §1

[28] = target: T28, PIK3C2G (Homo sapiens, UniProt O75747)
T28 construct: purchased DiscoveRx Corporation (KinomeScan)
Outline: as §1

[29] = target: T29, PIK3CA(E545K) (Homo sapiens, UniProt P42336, E545K)
T29 construct: purchased DiscoveRx Corporation (KinomeScan)
Outline: as §1

[30] = target: T30, PIK3CB (Homo sapiens, UniProt P42338)
T30 construct: purchased DiscoveRx Corporation (KinomeScan)
Outline: as §1

[31] = target: T31, PIK3CD (Homo sapiens, UniProt O00329)
T31 construct: purchased DiscoveRx Corporation (KinomeScan)
Outline: as §1

[32] = target: T32, PRP4 (Homo sapiens, UniProt Q13523)
T32 construct: purchased DiscoveRx Corporation
T32 sequence (Q13523 whole entry): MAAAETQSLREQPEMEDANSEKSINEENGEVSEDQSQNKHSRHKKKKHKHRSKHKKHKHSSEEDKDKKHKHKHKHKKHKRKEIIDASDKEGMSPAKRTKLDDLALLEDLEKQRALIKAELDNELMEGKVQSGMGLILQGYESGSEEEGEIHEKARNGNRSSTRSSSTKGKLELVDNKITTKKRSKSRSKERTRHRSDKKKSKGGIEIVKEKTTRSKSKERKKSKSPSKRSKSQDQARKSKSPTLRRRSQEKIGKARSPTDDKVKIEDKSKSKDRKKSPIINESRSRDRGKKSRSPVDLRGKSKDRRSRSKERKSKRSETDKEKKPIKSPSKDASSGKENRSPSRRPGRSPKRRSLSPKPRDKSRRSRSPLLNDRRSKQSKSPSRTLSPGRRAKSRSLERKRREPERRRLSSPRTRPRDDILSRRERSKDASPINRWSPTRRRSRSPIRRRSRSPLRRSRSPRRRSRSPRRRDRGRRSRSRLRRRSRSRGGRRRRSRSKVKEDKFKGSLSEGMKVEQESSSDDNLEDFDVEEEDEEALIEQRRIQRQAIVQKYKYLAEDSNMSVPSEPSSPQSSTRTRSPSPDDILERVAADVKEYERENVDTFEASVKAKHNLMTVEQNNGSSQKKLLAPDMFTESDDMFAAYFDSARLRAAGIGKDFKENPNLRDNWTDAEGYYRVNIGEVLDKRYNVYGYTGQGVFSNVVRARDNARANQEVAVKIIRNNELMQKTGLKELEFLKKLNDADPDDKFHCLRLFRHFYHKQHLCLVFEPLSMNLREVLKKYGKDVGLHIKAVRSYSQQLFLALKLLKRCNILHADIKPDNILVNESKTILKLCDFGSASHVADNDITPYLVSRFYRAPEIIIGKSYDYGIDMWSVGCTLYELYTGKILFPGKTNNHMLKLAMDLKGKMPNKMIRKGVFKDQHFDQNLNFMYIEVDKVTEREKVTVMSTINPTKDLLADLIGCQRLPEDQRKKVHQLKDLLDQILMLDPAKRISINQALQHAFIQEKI
Outline: as §1

[33] = target: T33, RAF1 (Homo sapiens, UniProt P04049)
T33 construct: purchased DiscoveRx Corporation
Outline: as §1

[34] = target: T34, SRPK1 (Homo sapiens, UniProt Q96SB4)
T34 construct: purchased DiscoveRx Corporation (KinomeScan)
Outline: as §1

[35] = target: T35, TAOK1 (Homo sapiens, UniProt Q7L7X3)
T35 construct: purchased DiscoveRx Corporation (KinomeScan)
Outline: as §1

[36] = target: T36, TIE2 (Homo sapiens, UniProt Q02763)
T36 construct: purchased DiscoveRx Corporation (KinomeScan)
Outline: as §1

## CCOP(=O)(CN1CCC(COc2cc3nccc(Oc4ccc(NC(=O)C5(C(=O)Nc6ccc(F)cc6)CC5)cc4F)c3cc2OC)CC1)OCC [Example 10, N1-[4-[[7-[[1-(diethoxyphosphorylmethyl)-4-piperidinyl]methoxyl]-6-methoxyl-4-quinolyl]oxyl]-3-fluorophenyl]-N1′-(4-fluorophenyl)cyclopropane-1,1-dicarboxamide]
[1]
  % Ctrl@1000 nM: 69 % Ctrl
[2]
  % Ctrl@1000 nM: 100 % Ctrl
[3]
  % Ctrl@1000 nM: 100 % Ctrl
[4]
  % Ctrl@1000 nM: 74 % Ctrl
[5]
  % Ctrl@1000 nM: 66 % Ctrl
[6]
  % Ctrl@1000 nM: 100 % Ctrl
[7]
  % Ctrl@1000 nM: 100 % Ctrl
[8]
  % Ctrl@1000 nM: 100 % Ctrl
[9]
  % Ctrl@1000 nM: 100 % Ctrl
[10]
  % Ctrl@1000 nM: 100 % Ctrl
[11]
  % Ctrl@1000 nM: 100 % Ctrl
[12]
  % Ctrl@1000 nM: 100 % Ctrl
[13]
  % Ctrl@1000 nM: 100 % Ctrl
[14]
  % Ctrl@1000 nM: 2.8 % Ctrl
[15]
  % Ctrl@1000 nM: 100 % Ctrl
[16]
  % Ctrl@1000 nM: 8.8 % Ctrl
[17]
  % Ctrl@1000 nM: 66 % Ctrl
[18]
  % Ctrl@1000 nM: 94 % Ctrl
[19]
  % Ctrl@1000 nM: 18 % Ctrl
[20]
  % Ctrl@1000 nM: 0 % Ctrl
[21]
  % Ctrl@1000 nM: 0.15 % Ctrl
[22]
  % Ctrl@1000 nM: 100 % Ctrl
[23]
  % Ctrl@1000 nM: 100 % Ctrl
[24]
  % Ctrl@1000 nM: 100 % Ctrl
[25]
  % Ctrl@1000 nM: 7.7 % Ctrl
[26]
  % Ctrl@1000 nM: 87 % Ctrl
[27]
  % Ctrl@1000 nM: 32 % Ctrl
[28]
  % Ctrl@1000 nM: 98 % Ctrl
[29]
  % Ctrl@1000 nM: 100 % Ctrl
[30]
  % Ctrl@1000 nM: 100 % Ctrl
[31]
  % Ctrl@1000 nM: 100 % Ctrl
[32]
  % Ctrl@1000 nM: 76 % Ctrl
[33]
  % Ctrl@1000 nM: 100 % Ctrl
[34]
  % Ctrl@1000 nM: 70 % Ctrl
[35]
  % Ctrl@1000 nM: 100 % Ctrl
[36]
  % Ctrl@1000 nM: 2.4 % Ctrl
